± gives the uncertainty stated by the source.
Experiment: xn = mol fraction of the nth substance listed

CCOCCO + NC=O
viscosity (303 K, 101 kPa, x2 = 0.1539): 2.222 ± 0.35 mPa·s
viscosity (303 K, 101 kPa, x2 = 0.3334): 2.676 ± 0.39 mPa·s
viscosity (303 K, 101 kPa, x2 = 0.4617): 2.99 ± 0.42 mPa·s
viscosity (303 K, 101 kPa, x2 = 0.5714): 3.203 ± 0.44 mPa·s
viscosity (303 K, 101 kPa, x2 = 0.6669): 3.477 ± 0.47 mPa·s
viscosity (303 K, 101 kPa, x2 = 0.7501): 3.576 ± 0.48 mPa·s
viscosity (303 K, 101 kPa, x2 = 0.8235): 3.446 ± 0.47 mPa·s
viscosity (303 K, 101 kPa, x2 = 0.8889): 3.199 ± 0.44 mPa·s
viscosity (303 K, 101 kPa, x2 = 0.9474): 3.008 ± 0.42 mPa·s
viscosity (303.15 K, 101 kPa, x2 = 0.8063): 3.495 ± 0.052 mPa·s
viscosity (313 K, 101 kPa, x2 = 0.1539): 1.769 ± 0.3 mPa·s
viscosity (313 K, 101 kPa, x2 = 0.3334): 2.075 ± 0.33 mPa·s
viscosity (313 K, 101 kPa, x2 = 0.4617): 2.139 ± 0.34 mPa·s
viscosity (313 K, 101 kPa, x2 = 0.5714): 2.481 ± 0.37 mPa·s
viscosity (313 K, 101 kPa, x2 = 0.6669): 2.647 ± 0.39 mPa·s
viscosity (313 K, 101 kPa, x2 = 0.7501): 2.752 ± 0.4 mPa·s
viscosity (313 K, 101 kPa, x2 = 0.8235): 2.588 ± 0.38 mPa·s
viscosity (313 K, 101 kPa, x2 = 0.8889): 2.513 ± 0.38 mPa·s
viscosity (323.15 K, 101 kPa, x2 = 0.2009): 1.415 ± 0.022 mPa·s

Cc1ccc([S@@](=O)O[C@@H]2C[C@H](C)CC[C@H]2C(C)C)cc1 + CCCCO
viscosity (298 K, 101.3 kPa, x1 = 0.00223): 2.53 ± 0.031 mPa·s
viscosity (298 K, 101.3 kPa, x1 = 0.0043): 2.548 ± 0.032 mPa·s
viscosity (298 K, 101.3 kPa, x1 = 0.00647): 2.573 ± 0.032 mPa·s
viscosity (298 K, 101.3 kPa, x1 = 0.0087): 2.586 ± 0.032 mPa·s
viscosity (298 K, 101.3 kPa, x1 = 0.01163): 2.628 ± 0.033 mPa·s

CCOCCO + CCCCCC
viscosity (298.15 K, 101.33 kPa, x1 = 0.0967): 0.335 ± 0.01 mPa·s
viscosity (298.15 K, 101.33 kPa, x1 = 0.1963): 0.376 ± 0.011 mPa·s
viscosity (298.15 K, 101.33 kPa, x1 = 0.2958): 0.433 ± 0.013 mPa·s
viscosity (298.15 K, 101.33 kPa, x1 = 0.394): 0.504 ± 0.014 mPa·s
viscosity (298.15 K, 101.33 kPa, x1 = 0.4948): 0.595 ± 0.016 mPa·s
viscosity (298.15 K, 101.33 kPa, x1 = 0.5958): 0.716 ± 0.019 mPa·s
viscosity (298.15 K, 101.33 kPa, x1 = 0.6979): 0.875 ± 0.022 mPa·s
viscosity (298.15 K, 101.33 kPa, x1 = 0.7955): 1.087 ± 0.027 mPa·s
viscosity (298.15 K, 101.33 kPa, x1 = 0.8993): 1.452 ± 0.035 mPa·s
viscosity (303.15 K, 101.33 kPa, x1 = 0.0967): 0.318 ± 0.01 mPa·s
viscosity (303.15 K, 101.33 kPa, x1 = 0.1963): 0.357 ± 0.011 mPa·s
viscosity (303.15 K, 101.33 kPa, x1 = 0.2958): 0.406 ± 0.012 mPa·s
viscosity (303.15 K, 101.33 kPa, x1 = 0.394): 0.472 ± 0.013 mPa·s
viscosity (303.15 K, 101.33 kPa, x1 = 0.4948): 0.554 ± 0.015 mPa·s
viscosity (303.15 K, 101.33 kPa, x1 = 0.5958): 0.663 ± 0.018 mPa·s
viscosity (303.15 K, 101.33 kPa, x1 = 0.6979): 0.803 ± 0.021 mPa·s
viscosity (303.15 K, 101.33 kPa, x1 = 0.7955): 0.987 ± 0.025 mPa·s
viscosity (303.15 K, 101.33 kPa, x1 = 0.8993): 1.315 ± 0.032 mPa·s
viscosity (308.15 K, 101.33 kPa, x1 = 0.0967): 0.303 ± 0.01 mPa·s
viscosity (308.15 K, 101.33 kPa, x1 = 0.1963): 0.339 ± 0.011 mPa·s
viscosity (308.15 K, 101.33 kPa, x1 = 0.2958): 0.385 ± 0.012 mPa·s
viscosity (308.15 K, 101.33 kPa, x1 = 0.394): 0.443 ± 0.013 mPa·s
viscosity (308.15 K, 101.33 kPa, x1 = 0.4948): 0.517 ± 0.014 mPa·s
viscosity (308.15 K, 101.33 kPa, x1 = 0.5958): 0.615 ± 0.017 mPa·s
viscosity (308.15 K, 101.33 kPa, x1 = 0.6979): 0.741 ± 0.019 mPa·s
viscosity (308.15 K, 101.33 kPa, x1 = 0.7955): 0.907 ± 0.023 mPa·s
viscosity (308.15 K, 101.33 kPa, x1 = 0.8993): 1.199 ± 0.029 mPa·s
viscosity (313.15 K, 101.33 kPa, x1 = 0.0967): 0.29 ± 0.009 mPa·s
viscosity (313.15 K, 101.33 kPa, x1 = 0.1963): 0.322 ± 0.01 mPa·s
viscosity (313.15 K, 101.33 kPa, x1 = 0.2958): 0.361 ± 0.011 mPa·s
viscosity (313.15 K, 101.33 kPa, x1 = 0.394): 0.415 ± 0.012 mPa·s
viscosity (313.15 K, 101.33 kPa, x1 = 0.4948): 0.484 ± 0.014 mPa·s
viscosity (313.15 K, 101.33 kPa, x1 = 0.5958): 0.573 ± 0.016 mPa·s
viscosity (313.15 K, 101.33 kPa, x1 = 0.6979): 0.686 ± 0.018 mPa·s
viscosity (313.15 K, 101.33 kPa, x1 = 0.7955): 0.829 ± 0.021 mPa·s
viscosity (313.15 K, 101.33 kPa, x1 = 0.8993): 1.083 ± 0.027 mPa·s

CNC(C)=O + CCCO
viscosity (303.15 K, 101 kPa, x1 = 0.1069): 1.816 ± 0.048 mPa·s
viscosity (303.15 K, 101 kPa, x1 = 0.1939): 1.891 ± 0.05 mPa·s
viscosity (303.15 K, 101 kPa, x1 = 0.3142): 2.033 ± 0.054 mPa·s
viscosity (303.15 K, 101 kPa, x1 = 0.3918): 2.142 ± 0.057 mPa·s
viscosity (303.15 K, 101 kPa, x1 = 0.4791): 2.289 ± 0.06 mPa·s
viscosity (303.15 K, 101 kPa, x1 = 0.5976): 2.537 ± 0.067 mPa·s
viscosity (303.15 K, 101 kPa, x1 = 0.6966): 2.785 ± 0.074 mPa·s
viscosity (303.15 K, 101 kPa, x1 = 0.7922): 3.066 ± 0.081 mPa·s
viscosity (303.15 K, 101 kPa, x1 = 0.9015): 3.443 ± 0.091 mPa·s
